# Reference: patent publication US20100298166A1, “CELL POPULATIONS FOR POLYPEPTIDE ANALYSIS AND USES OF SAME” (priority 2008, published 2010)
# Where two headings read alike, the source gives them in different places. Numbered stars: 1 amine (or outer) side, 2 acyl side, 3 side chain; on linkers, the order of the positions; unused ones are H or OH. Bridge positions count the residues as written; N and C are the ends. Square brackets hold non-standard residues; d marks the D form. Peptide text beside a SMILES is read from it. I, II: the chains in the order shown. Actinocin(9to1) = Cc1c2oc3c(C)ccc(C(=O)[*:1])c3nc-2c(C(=O)[*:2])c(N)c1=O; NMeV = CN[C@H](C(=O)O)C(C)C; Sar = CNCC(=O)O
# Tests used:
# Format in all cases: cell-based, human
# [1] = test system: H1299 non-small cell lung carcinoma cell line; assay: Time-lapse microscopy of cell death, motility and growth arrest after drug addition; conditions: CPT 10 uM
# Protocol: (§1) Long period time-lapse microscopy: Time-lapse movies were obtained (at 20× magnification) as described by Sigal et al. (Sigal, Milo et al. 2006, supra) with an automated, incubated (including humidity and CO2 control) Leica DMIRE2 inverted fluorescence microscope and an ORCA ER cooled CCD camera (Hamamatsu Photonics). The system was controlled by ImagePro5 Plus (Media Cybernetics) software which integrated time-lapse acquisition, stage movement, and software based auto-focus. During the experiment, cells were grown and visualized in 12-well coverslip bottom plates (MatTek) coated with […] fibronectin (Sigma). For each well time lapse movies were obtained at four fields of view. Each movie was taken at a time resolution of 20 minutes and was filmed for at least three days (over 200 time points). Each time point included three images—phase contrast, red and yellow fluorescence.
# Drug Materials: Camptothecin (CPT; C9911 Sigma), was dissolved in DMSO (hybri-max, D2650 Sigma) to achieve a stock solution of 10 mM. In each experiment, drug was diluted to 10 μM in a transparent growth medium (RPMI, X PenStrep, 10% FCS, w/o riboflavin, w/o phenol red, Bet Haemek). Growth medium (2 ml) was replaced by the diluted drug (2 ml) under the microscope. […]
# [2] = test system: YFP tagged proteins in H1299 cells; assay: Temporal profiles of total fluorescence and cell-cell variability of YFP tagged proteins in response to drug
# Protocol: as §1
# Image analysis of time lapse movies: A custom written image analysis tool was used developed using the Matlab image processing toolbox environment (Mathworks, Natick, Mass.). The main steps include; image correction, segmentation, tracking of the cells and automated identification of cell phenotypes (mitosis and cell death). Image background correction (flat field correction and background subtraction) was carried out as previously described (Sigal, Milo et al. 2006, supra). No significant bleaching was observed (on average less than 3% over the duration of the experiment). […] The main steps of the segmentation process are: 1) Differentiation between cells and background by global image threshold using Otsu's method (Otsu 1979, IEEE Transactions on Systems, Man, and Cybernetics 9(1): 62-66); 2) Segmentation of neighboring cells by applying the seeded watershed segmentation algorithm. […]
# Protein dynamics clustering: The five average population dynamics profiles depicted in FIG. 8B were generated in the following manner: The levels of each protein were smoothed using a median filter and linearly scaled between −1 and 1. The distance between every pair of proteins was measured in terms of Pearson correlation and clustering was performed using a k-means algorithm (reproducibility of results using different seeds is >99%). […]
# [3] = test system: thyredoxin and thyredoxin reductase; assay: Nuclear/cytoplasmic localization changes of tagged proteins following drug addition
# Protocol: as §1
# Image analysis of time lapse movies: A custom written image analysis tool was used developed using the Matlab image processing toolbox environment (Mathworks, Natick, Mass.). […]
# Nuclear localization changes following drug addition: The localization of each protein across the experiment was analyzed and the ratio of cytoplasmic to nuclear fluorescence was followed as a function of time. […] Both rapid and slow localization changes between the cytoplasm and the nucleus were detected (FIGS. 14A-C).
# TOP1 [4] = conditions: for effects on TOP1 (nucleolar exit, degradation, cytoplasmic accumulation): other DNA damaging drugs
# Protocol: as §1
# (§2) Drug Materials: Camptothecin (CPT; C9911 Sigma), was dissolved in DMSO (hybri-max, D2650 Sigma) to achieve a stock solution of 10 mM. In each experiment, drug was diluted to 10 μM in a transparent growth medium (RPMI, X PenStrep, 10% FCS, w/o riboflavin, w/o phenol red, Bet Haemek). Growth medium (2 ml) was replaced by the diluted drug (2 ml) under the microscope. The same procedure was carried out for the following drugs: Etoposide (E1383 Sigma), diluted to 33.3 μM and for Cisplatinum (P4394 Sigma) diluted to 40 μM. The stock solution for ActD (A1410 Sigma) was 1 mg/ml and was diluted to 1 μg/ml.
# Image analysis of time lapse movies: A custom written image analysis tool was used developed using the Matlab image processing toolbox environment (Mathworks, Natick, Mass.). The main steps include; image correction, segmentation, tracking of the cells and automated identification of cell phenotypes (mitosis and cell death). Image background correction (flat field correction and background subtraction) was carried out as previously described (Sigal, Milo et al. 2006, supra). […] The main steps of the segmentation process are: 1) Differentiation between cells and background by global image threshold using Otsu's method (Otsu 1979, IEEE Transactions on Systems, Man, and Cybernetics 9(1): 62-66); 2) Segmentation of neighboring cells by applying the seeded watershed segmentation algorithm. Seeds were obtained by smoothening the red intensity image and usage of bright nuclei as cell seeds (by identifying local maxima)—one seed per cell; 3) Nuclei segmentation following cell segmentation; each cell was independently stretched between zero and one and a fixed threshold was used to differentiate between the cytoplasm and the nuclei; 4) Tracking of cells was performed by analyzing the movie from end to start and linking each segmented cell to the cell in the previous image with the closest centroid; 5) The automated cell death identification algorithm utilizes the morphological changes correlated with dying cells: rounding followed by blebbing and an explosion of the outer membrane or its collapse. An artificial neural network (ANN) algorithm was constructed that could identify each one of these morphological patters similar to the method previously described in (Eden 2005, IEEE, Transactions on Medical Imaging 24: 1011-1024). Briefly, two sets of images were constructed: The first contained 400 cell images in different stages of cell death and the second contained 400 live cell images. For each image, a collection of high-level image features was computed. […] This process transforms each image into a multi dimensional vector of features.
# TOP1 [5] = assay: Immunoblots with anti-TOP1 and anti-GFP after CPT
# Protocol: Immunoblots against 20 selected proteins: Total cell lysates were prepared with RIPA buffer (Pierce) according to manufacturer's instructions. The protein concentrations were determined by BCA protein assay kit (Thermo scientific). Equal amounts of proteins were resolved on SDS-PAGE and subjected to immunoblotting analysis by using the antibodies listed below. The intensity of protein bands was quantified by using ImageJ software.
# Anti-Myosin IIA (M8064) and anti-GFP (11814460001) antibodies were from Sigma and Roche, respectively.
# nucleolar proteins = assay: Quantitation of nucleolar translocations of tagged proteins; conditions: 1 μg/ml
# Protocol: as §2
# Then, for each of the selected clones, the present inventors calculated the ratio of fluorescence intensity between the top and bottom ten percent pixels in individual nuclei and averaged over the population. Clones with a max/min change of over 20 percent in this average during the experiment were inspected manually to verify the source of change in pixel intensity distribution and were classified as clones showing nucleolar translocation.
# Finally, to quantify the extent and direction (nucleoli to nucleoplasm or vise versa) of the translocation, the present inventors calculated the ratio between mean fluorescence intensity of nucleoli vs. nucleoplasm (Rncll/nuc) at the two time points were the max/min ratio was maximized and minimized. […]
# DDX5 = assay: Bimodal behavior of tagged DDX5 in individual cells in response to drugs; conditions: Etoposide 33.3 μM, Cis-platinum 40 μM
# Protocol: as §2
# Determination of ‘bimodal’ behaviors: The coefficient of variance (CV defined as the ration between the std between cells and the mean) was measured for 400 proteins for 47 hours following addition of CPT (at a 20 minute resolution) (see FIGS. 13A-B). All CVs were normalized to average 1 (CV(i,j)/mean(mean(CV)) where i is protein number (i=1 . . . 400) and j is timepoint (j=1 . . . 141)). All proteins deviating 3 standard deviations from the average normalized CV were considered as ‘bimodal’ candidates (N=59). Following manual inspection, 30 of these proteins listed in Table 4 were denoted as bimodal.
smiles,measurement,setting,value
"CC[C@@]1(O)C(=O)OCc2c1cc1n(c2=O)Cc2cc3ccccc3nc2-1 [CPT, Camptothecin]",time to loss of motility and growth arrest after drug addition,[1],about 10 hours
same,cells showing cell rounding and blebbing (morphological correlates of cell death),[1]; after 36 hours,about 15%
same,largest changes in fluorescence,[2]; CPT 10 uM,about five
same,"median dynamic range of response, change in fluorescence",[2]; CPT 10 uM,1.3 fold
same,proteins showing a decrease in intensity in response to the drug,"[2]; CPT 10 uM, 48 hours tracking",about 70%
same,"increase of cell-cell variability (noise) following drug addition, on average",[2]; std between cells divided by mean,30%
same,time to increase in nuclear/cytoplasmic ratio of thyredoxin and thyredoxin reductase,[3]; after drug addition,≤ 8 h
same,proteins showing significant change in nuclear localization (>20% change in cytoplasm/nuclear fluorescence ratio),"[3]; all tagged proteins, after CPT addition",about 1%
same,timescale of decrease of total cellular fluorescence of tagged TOP1,TOP1 [4]; CPT,under an hour
same,nuclear exit of tagged TOP1,"TOP1 [4]; etoposide at equivalently lethal dose, CPT at several doses",exits from the nucleus to the cytoplasm in a CPT dose dependent manner
same,timescale of fluorescence accumulation in the cytoplasm in the TOP1 tagged clone,TOP1 [4]; following CPT addition,~5 h
same,time for TOP1 levels in the nucleoli to drop after drug addition,"TOP1 [4]; tagged TOP1, individual cells",less than 2 minutes
same,time within which most TOP1 is degraded,TOP1 [5],≤ 4 h
"Cc1c2oc3c(C)ccc(C(=O)N[C@@H]4C(=O)N[C@H](C(C)C)C(=O)N5CCC[C@H]5C(=O)N(C)CC(=O)N(C)[C@@H](C(C)C)C(=O)O[C@@H]4C)c3nc-2c(C(=O)N[C@@H]2C(=O)N[C@H](C(C)C)C(=O)N3CCC[C@H]3C(=O)N(C)CC(=O)N(C)[C@@H](C(C)C)C(=O)O[C@@H]2C)c(N)c1=O [actinomycinD, actinomycin-D] (I: T[dV]P[Sar][NMeV] / II: T[dV]P[Sar][NMeV]; ester I:1-I:C, II:1-II:C; linker I:N-II:N via Actinocin(9to1))",proteins with nucleolar dynamics similar to those seen with CPT,nucleolar proteins,4 out of 5
"N.N.[Cl][Pt][Cl] [cisplatin, Cisplatinum]","effects on TOP1 (nucleolar exit, degradation, cytoplasmic accumulation)",TOP1 [4],did not show any of these effects on TOP1
same,bimodal behavior of tagged DDX5,DDX5,did not show bimodal behavior
"COc1cc([C@@H]2c3cc4c(cc3[C@@H](O[C@@H]3O[C@@H]5CO[C@@H](C)O[C@H]5[C@H](O)[C@H]3O)[C@H]3COC(=O)[C@H]23)OCO4)cc(OC)c1O [etoposide, Etoposide]",nuclear exit of tagged TOP1,TOP1 [4],does not occur
same,"effects on TOP1 (nucleolar exit, degradation, cytoplasmic accumulation)",TOP1 [4],did not show any of these effects on TOP1
same,bimodal behavior of tagged DDX5,DDX5,did not show bimodal behavior
